Data: US20060148714A1, “Therapeutic peptide-based constructs” (priority 1999, published 2006)
In brackets after ≈: the same amount, converted by molar mass. Where a SMILES comes first, the peptide text is derived from it. Where no end group is shown, it is not given here. [ ]: non-standard residue; d: D form. The star is where a group is joined. 2‑biphenylenecarbonyl = O=C(c1ccc2c(c1)-c1ccccc1-2)*; Acetyl(2-naphthyl) = O=C(Cc1ccc2ccccc2c1)*; d1Nal = N[C@H](Cc1cccc2ccccc12)C(=O)O

Key:
[1] = system: retinal endothelial cells; assay: Retinal endothelial cell growth stimulated by VEGF (DNA content); type: cell-based, bovine; conditions: 5 μg/mL and 15 μg/mL
Experimental: In these experiments, peptide-based constructs are tested for their activity on the action of VEGF, bFGF, IGF-1 and conditioned media (hypoxia and hyperglycemia) on the in vitro growth and migration of retinal pigmented epithelial cells (RPE), retinal microvessel pericytes, and retinal endothelial cells. Effects are evaluated on gene expression under hypoxic or […] conditions. In additional experiments, the effects of such constructs are characterized in vivo on the neovascular responses to hyperoxia in the retina of the neonatal mouse.
For the in vitro culture experiments, retinal microvessel pericytes, retinal endothelial cells, and retinal pigmented epithelial cells (RPE) are cultured from bovine retina. Dose responses and time course for growth and migration as stimulated by VEGF, bFGF, and IGF-1 are performed. For example, retinal endothelial cell growth as stimulated by VEGF was inhibited with 5 μg/mL and 15 μg/mL XMP.679 as measured by DNA content (ng/cell well). […] When the dose responses of these growth factors and conditioned media are determined, the effect of peptide-based constructs independently, and in combination with the growth factors described above, are tested in growth and migration assays.

[2] = system: E. coli (J5 and 0111 B4), Staphylococcus aureus and Candida albicans; assay: Broth and/or radial diffusion antimicrobial assays; type: cell-based
[3] = system: human umbilical vein endothelial cells (HUVEC); type: cell-based; conditions: 72 h
Experimental: Briefly, human umbilical vein endothelial cells (HUVEC) were cultured in EGM-2 medium (Clonetics Corp., San Diego, Calif.), harvested and plated onto a 96-well culture plate. After 24 hours of quiescence, the cells were co-cultured with various peptide-based constricts in the presence of growth factors for 72 hours to test their activity. Cell proliferation was quantitated by tritiated thymidine incorporation into DNA and was expressed in counts per minute (cpm).
Details of the experimental procedures were as follows: HUVEC cells were cultured in EGM-2 media from Clonetics Corp., a subsidiary of BioWhittaker, Inc., San Diego, Calif. [EGM-2 is Endothelial Cell Basal Medium-2 (EMB-2) supplemented with growth factors (hFGF-B, VEGF, IGF-1, hEGF) ascorbic acid, heparin, GA-1000 and 2% FBS), in T75 flasks until confluent (˜4-7 days). Cells were harvested by trypsinizing the cells using 0.025% trypsin/EDTA for 5 minutes. To stop the reaction, 2-5% FBS was added. The cells were centrifuged and washed 3 times using Hank's Balanced Salt Solution (HBSS) or Dulbecco's Phosphate Buffered Saline D-PBS. The pellet was then resuspended in EBM-2 supplemented with 0.1% FBS and GA-1000 was used. The cells were counted and a cell suspension was prepared at 2×10^5/mL in EBM-2 with 0.1% FBS; cells were dispensed into a 96-well flat bottomed culture plate at 0.1 mL/well (total: ˜20,000 cells/well in 0.1% FBS-EBM-2). Incubation continued at 37° C. in 5% CO2 for 20-24 hours. The next day peptide-based constructs were prepared for testing in a 96 well plate. The supernatant was aspirated from the cell-well, replaced with EBM-2 or the testing reagent at 20 μL/well. Then, 180 μL/well of 1.12% FBS-GFS were added to make a final concentration of 1% FBS-GFS in EBM-2. This aspiration and addition was done well-by-well. ^3H-thymidine (100 μCi/mL) was added at 10 μL/well (1 μCi/well, final). Incubation continued at 37° C., 5% CO2 for 72 hours. To harvest the plate, the supernatant was aspirated off from the cell-well and then 75 μL-100 μL/well of 0.025% trypsin-EDTA was added. After incubation for 8-10 minutes at room temperature in the hood, the cells were checked and 100 μL/well of 2-5% FBS-PBS was added to stop the reaction. The plate was then harvested, dried and counted using an Inotech cell harvester (Inotech Biosystems, INB-384, Sample Processing and Filter Counting System, Lansing, Mich.).

[4] = system: Factor Xa neutralization by ATIII/heparin complexes; assay: Chromostrate heparin anti-Factor Xa assay (heparin neutralization); type: biochemical; conditions: absorbance at 405 nm
[5] = Behaviour in 1 mg/ml stock solution; type: physicochemical; parameters: key: b: precipitated in 1 mg/ml stock solution; conditions: no IC50 given

| Molecule | cell growth by DNA content in treated VEGF-stimulated cells versus unstimulated cells [1] | retinal endothelial cell growth as stimulated by VEGF, measured by DNA content (ng/cell well) [1] | antimicrobial activity [2] | IC50 [3] [µg/mL] | Assay A: percent heparin neutralization relative to protamine (100%) [4] [%] | Assay B: percent heparin neutralization relative to protamine (100%) [4] [%] | precipitated in 1 mg/ml stock solution [5] |
| --- | --- | --- | --- | --- | --- | --- | --- |
| CC(C)C[C@@H](NC(=O)[C@H](N)CCCCN)C(=O)N[C@H](Cc1ccccc1)C(=O)N[C@H](CCCCN)C(=O)N[C@H](Cc1cccc2ccccc12)C(=O)N[C@H](CCC(N)=O)C(=O)N[C@H](C)C(=O)N[C@H](CCCCN)C(=O)N[C@H](Cc1cccc2ccccc12)C(=O)N[C@H](CCCCN)C(=O)NCC(N)=O [XMP.679, k-l-f-k-(naph-a)-q-a-k-(naph-a)-k-g] (H-[dK][dL][dF][dK][d1Nal][dQ][dA][dK][d1Nal][dK]G-NH2; N-terminus assumed) | comparable with that of cells not stimulated by VEGF | inhibited | highest antimicrobial activities | 6.3 ± 0.9 (≈ 4.37 µM) | 96 | 94 | – |
| 2-naphthylacetyl-k-l-f-r-(naph-a)-q-a-k ({Acetyl(2-naphthyl)}-[dK][dL][dF][dR][dNal][dQ][dA][dK]; not fully specified; printed as 2-naphthylacetyl-k-l-f-r-(naph-a)-q-a-k) [XMP.666] | – | – | – | – | 39 | 18 | b |
| 2-biphenylenecarbonyl-k-l-f-r-(naph-a)-q-a-k ({2‑biphenylenecarbonyl}-[dK][dL][dF][dR][dNal][dQ][dA][dK]; not fully specified; printed as 2-biphenylenecarbonyl-k-l-f-r-(naph-a)-q-a-k) [XMP.699] | – | – | – | – | 45 | 23 | b |
